Where two headings read alike, the source gives them in different places.
Experiments:
Type in all cases: cell-based
[1] = system: Human esophageal cancer cells OE33; assay: Tumor cell growth inhibitory activity (CCK-8), OE33
Procedure: (§1) Human esophageal cancer cells OE33 (human breast adenocarcinoma cells SK-BR-3, or human gastric cancer cells NCI-N87) was cultured in RPMI1640 (Cellmax) supplemented with 10% fetal bovine serum (Cellmax). Cells in the exponential growth phase were diluted to a concentration of 1×10^5 cells/mL by culture medium and added to 96-well cell culture plates at 100 μL per well, then returned back and incubated overnight in a 37° C. incubator with 5% CO2. On the following day, the compounds were diluted to concentrations of 10000 nM, 2000 nM, 400 nM, 80 nM, 16 nM, 3.2 nM, 0.64 nM, and 0.13 nM by culture medium and the diluted compounds were added to the 96-well cell culture plates at 2 μL per well, with three replicate wells for each concentration. Negative control and blank control groups without addition of compounds were added with 2 μL of the dilution liquid per well. After the addition of the compounds, the plates were returned back to the 37° C. incubator with 5% CO2 to continue the incubation for 72 h. After the incubation, the cell culture plates were removed, and the culture medium was aspirated using a pipette. Then, 100 μL of culture medium containing 10% CCK-8 was added to each well, and the plates were incubated at 37° C. for 3 h. After the incubation, the plates were removed, kept in the dark, and placed in an ELISA plate. Absorbance was measured at 630 nm as the reference wavelength and 450 nm as the test wavelength. The IC50 values (Table 2) were calculated using the four-parameter logistic regression method in GraphPad.

[2] = system: human breast adenocarcinoma cells SK-BR-3; assay: Tumor cell growth inhibitory activity (CCK-8), SK-BR-3
Procedure: as §1

[3] = system: human gastric cancer cells NCI-N87; assay: Tumor cell growth inhibitory activity (CCK-8), NCI-N87
Procedure: as §1

[4] = system: NCI-H1975; assay: Tumor cell growth inhibitory activity, NCI-H1975
[5] = system: MDA-MB-231; assay: Tumor cell growth inhibitory activity, MDA-MB-231
[6] = read-out: IC50 (nM) for inhibiting the growth of tumor cells, OE33, OE33 cells, 72 h incubation, CCK-8
[7] = read-out: IC50 (nM) for inhibiting the growth of tumor cells, SK-BR-3, SK-BR-3 cells, 72 h incubation, CCK-8
[8] = read-out: IC50 (nM) for inhibiting the growth of tumor cells, NCI-N87, NCI-N87 cells, 72 h incubation, CCK-8
[9] = Homo sapiens, NCI-H1975, read-out: IC50 (nM) for inhibiting the growth of tumor cells, NCI-H1975, NCI-H1975 cells
[10] = Homo sapiens, MDA-MB-231, read-out: IC50 (nM) for inhibiting the growth of tumor cells, MDA-MB-231, MDA-MB-231 cells
[11] = Homo sapiens, OE33, 72 h, read-out: IC50 (nM) for inhibiting the growth of tumor cells, OE33, OE33 cells, 72 h incubation, CCK-8
[12] = Homo sapiens, SK-BR-3, 72 h, read-out: IC50 (nM) for inhibiting the growth of tumor cells, SK-BR-3, SK-BR-3 cells, 72 h incubation, CCK-8
[13] = Homo sapiens, NCI-N87, 72 h, read-out: IC50 (nM) for inhibiting the growth of tumor cells, NCI-N87, NCI-N87 cells, 72 h incubation, CCK-8
[14] = Homo sapiens, OE33 cells, 72 h incubation, CCK-8, read-out: IC50 (nM) for inhibiting the growth of tumor cells, OE33
[15] = Homo sapiens, SK-BR-3 cells, 72 h incubation, CCK-8, read-out: IC50 (nM) for inhibiting the growth of tumor cells, SK-BR-3
[16] = Homo sapiens, NCI-N87 cells, 72 h incubation, CCK-8, read-out: IC50 (nM) for inhibiting the growth of tumor cells, NCI-N87
[17] = Homo sapiens, NCI-H1975 cells, read-out: IC50 (nM) for inhibiting the growth of tumor cells, NCI-H1975
[18] = Homo sapiens, MDA-MB-231 cells, read-out: IC50 (nM) for inhibiting the growth of tumor cells, MDA-MB-231

SMILES | IC50 [4, 9] [nM] | IC50 [5, 10] [nM] | IC50 [1, 11] [nM] | IC50 [2, 12] [nM] | IC50 [3, 13] [nM] | IC50 [1, 14] [nM] | IC50 [2, 15] [nM] | IC50 [3, 16] [nM] | IC50 [4, 17] [nM] | IC50 [5, 18] [nM] | further results
CC[C@@]1(O)C(=O)OCc2c1cc1n(c2=O)Cc2c-1nc1cc3c(cc1c2CCNCCOC)OCO3 [Compound 17, 7-(2-(2-Methoxyethyl)amino)ethyl-10,11-methylenedioxycamptothecin] | 9.09 | 103 | – | – | – | – | – | – | – | – | IC50 [1, 6]: 2.49 nM; IC50 [2, 7]: 6.53 nM; IC50 [3, 8]: 0.7 nM
CC[C@@]1(O)C(=O)OCc2c1cc1n(c2=O)Cc2c-1nc1cc3c(cc1c2CCN[C@@H](C)CCO)OCO3 [Compound 18, 7-(2-((S)-4-Hydroxybutyl-2-yl)amino)ethyl-10,11-methylenedioxycamptothecin] | – | 446 | – | – | – | – | – | – | – | – | IC50 [1, 6]: 20.4 nM; IC50 [2, 7]: 17.1 nM; IC50 [3, 8]: 3.63 nM; IC50 ([4]; read-out: IC50 (nM) for inhibiting the growth of tumor cells, NCI-H1975, NCI-H1975 cells): 222 nM
CC[C@@]1(O)C(=O)OCc2c1cc1n(c2=O)Cc2c-1nc1cc3c(cc1c2CCNCC(F)F)OCO3 [Compound 24, 7-(2-(2-Difluoroethyl)amino)ethyl-10,11-methylenedioxycamptothecin] | 15.6 | 78.2 | 0.56 | 2.96 | 0.24 | – | – | – | – | – | –
CC[C@@]1(O)C(=O)OCc2c1cc1n(c2=O)Cc2c-1nc1cc3c(cc1c2CCNC1CCOCC1)OCO3 [Compound 25, 7-(2-(Tetrahydropyran-4-yl)amino)ethyl-10,11-methylenedioxycamptothecin] | 15.8 | 21.3 | 4.89 | 4.96 | 0.46 | – | – | – | – | – | –
CC[C@@]1(O)C(=O)OCc2c1cc1n(c2=O)Cc2c-1nc1cc3c(cc1c2CCNC1CCC(OC)CC1)OCO3 (stereo partly drawn) [Compound 27, 7-(2-(4-Methoxycyclohexyl)amino)ethyl-10,11-methylenedioxycamptothecin] | 30.2 | 155 | 7.9 | 26.1 | 2.91 | – | – | – | – | – | –
CC[C@@]1(O)C(=O)OCc2c1cc1n(c2=O)Cc2c-1nc1cc3c(cc1c2CCN[C@@H](C)CN=[N+]=[N-])OCO3 [Compound 29, 7-(2-((S)-Azidoisopropyl)amino)ethyl-10,11-methylenedioxycamptothecin] | 5.56 | 32.7 | 1.4 | 2 | 0.84 | – | – | – | – | – | –
CC[C@@]1(O)C(=O)OCc2c1cc1n(c2=O)Cc2c-1nc1cc3c(cc1c2CCN(C(=O)CO)[C@@H](C)COC)OCO3 [Compound 30, 7-(2-(N-Hydroxyacetyl((S)-methoxyisopropyl))amino)ethyl-10,11-methylenedioxycamptothecin] | – | – | – | – | – | 6.47 | 6.23 | 1.56 | 15.4 | 98.5 | –
CC[C@@]1(O)C(=O)OCc2c1cc1n(c2=O)Cc2c-1nc1cc3c(cc1c2CCN[C@@H]1CCOC1)OCO3 [Compound 34, 7-(2-(N-(R)-Tetrahydrofuran-3-ylamino))ethyl-10,11-methylenedioxycamptothecin] | 14.4 | 41.8 | 2.94 | 0.45 | 54.2 | – | – | – | – | – | –
CC[C@@]1(O)C(=O)OCc2c1cc1n(c2=O)Cc2c-1nc1cc3c(cc1c2CCN[C@H]1CCOC1)OCO3 [Compound 35, 7-(2-(N-(S)-Tetrahydrofuran-3-ylamino))ethyl-10,11-methylenedioxycamptothecin] | 18.5 | 73.5 | 2.18 | 0.87 | 54 | – | – | – | – | – | –
C[C@@]1(O)C(=O)OCc2c1cc1n(c2=O)Cc2c-1nc1cc3c(cc1c2CCNC(=O)C(F)F)OCO3 [Compound 36, 7-(2-Difluoroacetylamino)ethyl-10,11-methylenedioxycamptothecin] | – | – | – | – | – | 7.24 | 2.8 | 7.66 | 38.7 | 110 | –
CC[C@@]1(O)C(=O)OCc2c1cc1n(c2=O)Cc2c-1nc1cc3c(cc1c2CCNCCOC)OCCO3 [Compound 42, 7-(2-(2-Methoxyethyl)amino)ethyl-10,11-ethylenedioxycamptothecin] | – | – | – | – | – | 9.95 | 18 | 9.96 | 26.6 | 94.8 | –
CC[C@@]1(O)C(=O)OCc2c1cc1n(c2=O)Cc2c-1nc1cc3c(cc1c2CCNC1CCOCC1)OCCO3 [Compound 43, 7-(2-(Tetrahydropyran-4-yl)amino)ethyl-10,11-ethylenedioxycamptothecin] | – | – | – | – | – | 39.3 | 81.8 | 7.43 | 58.7 | 243 | –
CC[C@@]1(O)C(=O)OCc2c1cc1n(c2=O)Cc2c-1nc1cc3c(cc1c2CCNC1CCC(OC)CC1)OCCO3 (stereo partly drawn) [Compound 44, 7-(2-(4-Methoxycyclohexyl)amino)ethyl-10,11-ethylenedioxycamptothecin] | – | – | – | – | – | 13.8 | 33.6 | 3.54 | 27.1 | 88.5 | –
CC[C@@]1(O)C(=O)OCc2c1cc1n(c2=O)Cc2c-1nc1cc3c(cc1c2CCN[C@@H](C)COC)OCCO3 [Compound 45, 7-(2-((S)-Methoxyisopropyl)amino)ethyl-10,11-ethylenedioxycamptothecin] | – | – | – | – | – | 10.3 | 18.5 | 2.46 | 106 | 960 | –
CC[C@@]1(O)C(=O)OCc2c1cc1n(c2=O)Cc2c-1nc1cc(F)c(C)c3c1c2[C@@H](NC(=O)CO)CC3 [Dxd, reference compound] | – | – | – | – | – | – | – | – | – | – | IC50 ([1]; OE33 cells, 72 h incubation, CCK-8, read-out: IC50 (nM) for inhibiting the growth of tumor cells, OE33): 7.01 nM; IC50 ([2]; SK-BR-3 cells, 72 h incubation, CCK-8, read-out: IC50 (nM) for inhibiting the growth of tumor cells, SK-BR-3): 9.69 nM; IC50 ([3]; NCI-N87 cells, 72 h incubation, CCK-8, read-out: IC50 (nM) for inhibiting the growth of tumor cells, NCI-N87): 2.48 nM; IC50 ([4]; NCI-H1975 cells, read-out: IC50 (nM) for inhibiting the growth of tumor cells, NCI-H1975): 286 nM; IC50 ([5]; MDA-MB-231 cells, read-out: IC50 (nM) for inhibiting the growth of tumor cells, MDA-MB-231): 135 nM

Reference: patent publication US20260042774A1, “CAMPTOTHECIN-7-ETHYLAMINE DERIVATIVE, PREPARATION METHOD THEREFOR, AND USE THEREOF” (HANGZHOU ADCORIS BIOPHARMA CO., LTD, priority 2022, published 2026)
